Measurements as given in ChEMBL document CHEMBL6153055, “Design, Synthesis, and Pharmacological Evaluation of Nonsteroidal Tricyclic Ligands as Modulators of GABAA Receptors” (J Med Chem, 2025).
pIC50: −log10 of the molar value. Active and inactive are the calls of the source. The rule behind the calls is not given here.

Tests used:
[1] = target: T1, Gamma-aminobutyric acid receptor subunit alpha-1/beta-3/gamma-2 (Mus musculus, UniProt P22723+P62812+P63080); test: Negative allosteric modulation of recombinant mouse alpha1beta3gamma2 GABAA receptor expressed in GFP tagged HEK293 cells at steady state current by whole-cell voltage clamp electrophysiological analysis; type: cell-based
[2] = target: T1, Gamma-aminobutyric acid receptor subunit alpha-1/beta-3/gamma-2; test: Negative allosteric modulation of recombinant mouse alpha1beta3gamma2 GABAA receptor expressed in GFP tagged HEK293 cells at peak current by whole-cell voltage clamp electrophysiological analysis; type: cell-based
[3] = target: T2, Gamma-aminobutyric acid receptor subunit alpha-1/beta-3/gamma-2 (Mus musculus) (UniProt P22723+P62812+P63080); test: Negative allosteric modulation of recombinant mouse alpha1beta3gamma2 GABAA receptor expressed in GFP tagged HEK293 cells at 100 uM by whole-cell voltage clamp electrophysiological analysis; type: cell-based; details: filed as negative allosteric modulator
[4] = target: T2, Gamma-aminobutyric acid receptor subunit alpha-1/beta-3/gamma-2 (Mus musculus); test: Positive allosteric modulation of recombinant mouse alpha1beta3gamma2 GABAA receptor expressed in GFP tagged HEK293 cells assessed as maximum GABA current at 100 uM by whole-cell voltage clamp electrophysiological analysis; type: cell-based; details: filed as positive allosteric modulator
[5] = Solubility of the compound at 100 uM; type: physicochemical
[6] = target: T2, Gamma-aminobutyric acid receptor subunit alpha-1/beta-3/gamma-2 (Mus musculus); test: Negative allosteric modulation of recombinant mouse alpha1beta3gamma2 GABAA receptor expressed in GFP tagged HEK293 cells at 100 uM by whole-cell voltage clamp electrophysiological analysis relative control; type: cell-based; details: filed as negative allosteric modulator
[7] = target: T3, GABA-A receptor; anion channel (Rattus norvegicus) (UniProt O09028+P15431+P18506+P18508+P19969+P20236+P23574+P23576+P28471+P28473+P30191+P62813+P63079+P63138+Q91ZM7+Q9ES14); test: Positive allosteric modulation of GABAA receptor in Sprague-Dawley rat Hippocampal neuron assessed as reduction in spontaneous IPSC amplitude at 10 uM by whole-cell voltage-clamp electrophysiological analysis; type: cell-based; details: filed as positive allosteric modulator
HEK293 [8] = test: Positive allosteric modulation of recombinant mouse alpha1 Q241L mutant/beta3/gamma2 GABAA receptor expressed in GFP tagged HEK293 cells by whole-cell voltage clamp electrophysiological analysis; type: cell-based
[9] = target: T3, GABA-A receptor; anion channel (Rattus norvegicus); test: Positive allosteric modulation of GABAA receptor in Sprague-Dawley rat Hippocampal neuron assessed as potentiation of tonic holding current at 30 uM by whole-cell voltage-clamp electrophysiological analysis; type: cell-based; details: filed as positive allosteric modulator
[10] = target: T3, GABA-A receptor; anion channel (Rattus norvegicus); test: Positive allosteric modulation of GABAA receptor in Sprague-Dawley rat Hippocampal neuron assessed as decrease in spontaneous IPSC frequency at 10 uM by whole-cell voltage-clamp electrophysiological analysis; type: cell-based; details: filed as positive allosteric modulator
[11] = target: T3, GABA-A receptor; anion channel (Rattus norvegicus); test: Positive allosteric modulation of GABAA receptor in Sprague-Dawley rat Hippocampal neuron assessed as prolongation of spontaneous IPSC decay time at 10 uM by whole-cell voltage-clamp electrophysiological analysis; type: cell-based; details: filed as positive allosteric modulator
HEK293 [12] = test: Positive allosteric modulation of recombinant mouse alpha1 Q241L mutant/beta3/gamma2 GABAA receptor expressed in GFP tagged HEK293 cells at 100 uM by whole-cell voltage clamp electrophysiological analysis; type: cell-based
HEK293 [13] = test: Negative allosteric modulation of recombinant mouse alpha1 Q241L mutant/beta3/gamma2 GABAA receptor expressed in GFP tagged HEK293 cells assessed as inhibition of steady-state level at 100 uM by whole-cell voltage clamp electrophysiological analysis; type: cell-based
HEK293 [14] = test: Negative allosteric modulation of recombinant mouse alpha1 Q241L mutant/beta3/gamma2 GABAA receptor expressed in GFP tagged HEK293 cells assessed as inhibition of peak current at 100 uM by whole-cell voltage clamp electrophysiological analysis; type: cell-based
[15] = target: T2, Gamma-aminobutyric acid receptor subunit alpha-1/beta-3/gamma-2 (Mus musculus); test: Positive allosteric modulation of recombinant wild type mouse alpha1beta3gamma2 GABAA receptor expressed in GFP tagged HEK293 cells at 100 uM by whole-cell voltage clamp electrophysiological analysis; type: cell-based
[16] = target: T2, Gamma-aminobutyric acid receptor subunit alpha-1/beta-3/gamma-2 (Mus musculus); test: Positive allosteric modulation of recombinant mouse alpha1beta3gamma2 GABAA receptor expressed in GFP tagged HEK293 cells assessed as maximum GABA current by measuring maximum activation at 100 uM by whole-cell voltage clamp electrophysiological analysis relative to control; type: cell-based; details: filed as positive allosteric modulator

T1 sequence (P22723 whole entry): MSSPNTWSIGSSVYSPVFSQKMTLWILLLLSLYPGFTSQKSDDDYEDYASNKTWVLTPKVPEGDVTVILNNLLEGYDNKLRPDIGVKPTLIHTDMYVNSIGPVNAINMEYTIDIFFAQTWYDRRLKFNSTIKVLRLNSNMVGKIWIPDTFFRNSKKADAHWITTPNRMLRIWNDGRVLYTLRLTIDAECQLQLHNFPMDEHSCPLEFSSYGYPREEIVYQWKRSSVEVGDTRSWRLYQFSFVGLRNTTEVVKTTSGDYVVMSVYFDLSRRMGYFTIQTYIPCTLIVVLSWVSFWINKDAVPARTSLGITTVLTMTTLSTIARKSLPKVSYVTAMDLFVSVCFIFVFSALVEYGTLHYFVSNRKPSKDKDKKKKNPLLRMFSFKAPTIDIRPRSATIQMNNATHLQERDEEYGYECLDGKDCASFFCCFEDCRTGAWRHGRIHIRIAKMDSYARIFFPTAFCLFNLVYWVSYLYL
T1 sequence (P62812 whole entry): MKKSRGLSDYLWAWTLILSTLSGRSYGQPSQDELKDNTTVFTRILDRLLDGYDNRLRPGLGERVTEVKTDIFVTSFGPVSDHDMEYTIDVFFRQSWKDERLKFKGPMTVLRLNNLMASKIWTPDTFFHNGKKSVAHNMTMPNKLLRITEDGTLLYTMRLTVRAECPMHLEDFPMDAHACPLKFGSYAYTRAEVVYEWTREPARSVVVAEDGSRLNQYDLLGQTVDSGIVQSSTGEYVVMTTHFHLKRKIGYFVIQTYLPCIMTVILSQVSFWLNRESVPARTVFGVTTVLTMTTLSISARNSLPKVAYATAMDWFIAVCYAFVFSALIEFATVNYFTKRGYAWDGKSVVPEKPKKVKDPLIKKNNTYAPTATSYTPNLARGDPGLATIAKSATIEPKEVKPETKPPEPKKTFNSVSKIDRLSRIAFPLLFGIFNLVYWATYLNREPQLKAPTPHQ
T1 sequence (P63080 whole entry): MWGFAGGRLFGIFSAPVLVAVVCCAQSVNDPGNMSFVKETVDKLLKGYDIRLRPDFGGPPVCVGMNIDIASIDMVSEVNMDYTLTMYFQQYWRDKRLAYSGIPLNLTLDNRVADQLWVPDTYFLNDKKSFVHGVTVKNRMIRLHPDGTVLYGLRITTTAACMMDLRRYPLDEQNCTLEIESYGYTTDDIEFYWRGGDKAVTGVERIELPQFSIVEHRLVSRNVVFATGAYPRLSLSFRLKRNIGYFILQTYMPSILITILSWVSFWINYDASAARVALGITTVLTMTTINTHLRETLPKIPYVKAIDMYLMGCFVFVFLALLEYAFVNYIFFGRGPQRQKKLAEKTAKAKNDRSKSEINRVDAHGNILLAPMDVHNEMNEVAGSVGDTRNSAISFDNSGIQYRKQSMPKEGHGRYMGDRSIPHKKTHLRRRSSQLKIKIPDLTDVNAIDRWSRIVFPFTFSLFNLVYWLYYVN

pIC50 [1]	pIC50 [2]	Activity [3]	Activity [4]	solubility [5]	Activity [6]	SMILES	also measured
4.74	4.26	Active	Active	soluble		O[C@H]1CC[C@@H](c2ccc3c(c2)CCC3)CC1	
4.85	4.23	Active	Active	soluble		O[C@H]1CC[C@H](c2ccc3c(c2)CCC3)CC1	
5.00	5.00	Active	Active	soluble	100%	C[C@]12CC[C@H](OS(=O)(=O)O)CC1=CCc1cc(Br)ccc12	
4.64	3.94	Active		soluble		C[C@@]12CC/C(=C/CO)C[C@H]1CCc1ccccc12	
4.28	3.72	Active	Active	soluble		O=S(=O)(O)O[C@H]1CC[C@@H](c2ccc3c(c2)CCC3)CC1	
4.14	3.83	Active		soluble		O=S(=O)(O)O[C@H]1CC[C@H](c2ccc3c(c2)CCC3)CC1	
						CC(=O)c1cccc(C2=CC[C@@]3(C)[C@H](CC[C@@H]3O)C2)c1	Activity [7]: Active; Activity (HEK293 [8]): inactive; Activity [9]: Active; Activity [10]: Active; Activity [11]: Active
						CC(=O)c1cccc(C2=C[C@H]3CC[C@H](O)[C@@]3(C)CC2)c1	Activity (HEK293 [8]): inactive
4.27	3.89	Active		soluble		C[C@]12CC[C@H](c3ccccc3)C[C@H]1CC[C@@H]2OS(=O)(=O)O (mixture of isomers)	
4.92	4.82	Active		soluble	100%	C[C@@]12CCC(CCOS(=O)(=O)O)C[C@H]1CCc1ccccc12 (mixture of isomers)	Activity (HEK293 [12]): inactive; Activity (HEK293 [13]): inactive; Activity (HEK293 [14]): inactive; Activity [15]: inactive
4.70	4.43	Active	Active	soluble	100%	C[C@]12CC[C@H](c3ccccc3)C[C@H]1CC[C@@H]2O (mixture of isomers)	Emax [16]: 43%
4.85	4.54	Active		soluble	100%	C[C@@]12CCC(CCO)C[C@H]1CCc1ccccc12 (mixture of isomers)	Activity (HEK293 [12]): inactive; Activity (HEK293 [13]): inactive; Activity (HEK293 [14]; filed as negative allosteric modulator): Active; Activity [15]: inactive
4.38	4.12	Active	Active	soluble		C[C@]12CC[C@@H](c3ccccc3)C[C@H]1CC[C@@H]2OS(=O)(=O)O (mixture of isomers)	
4.68	4.57	Active	Active	soluble	100%	C[C@]12CC[C@@H](c3ccccc3)C[C@H]1CC[C@@H]2O (relative stereo)	

SMILES	pIC50 [1]	pIC50 [2]	Activity [3]	Activity [4]	solubility [5]	Activity [6]	also measured
CC(=O)[C@H]1CC[C@H]2[C@@H]3CC=C4C[C@@H](OS(=O)(=O)O)CC[C@]4(C)[C@H]3CC[C@]12C	5.49	3.53					
